Data published in US10300051B2, “Cyclopropylamines as LSD1 inhibitors” (priority 2014, dated 2019).

Molecular target: LSD-1 enzyme (Homo sapiens (Human), UniProt O60341)
Type: biochemical
Conditions: 1 nM LSD-1 enzyme, 1 hour preincubation at 25° C., Biotin-labeled Histone H3 peptide substrate
Description: Example A: LSD1 Histone Demethylase Biochemical Assay
LANCE LSD1/KDM1A demethylase assay—10 μL of 1 nM LSD-1 enzyme (ENZO BML-SE544-0050) in the assay buffer (50 mM Tris, pH 7.5, 0.01% Tween-20, 25 mM NaCl, 5 mM DTT) were preincubated for 1 hour at 25° C. with 0.8 μL compound/DMSO dotted in black 384 well polystyrene plates. […] Reactions were stopped by addition of 10 μL 1× LANCE Detection Buffer (PerkinElmer CR97-100) supplemented with 1.5 nM Eu-anti-unmodified H3K4 Antibody (PerkinElmer TRF0404), and 225 nM LANCE Ultra Streptavidin (PerkinElmer TRF102) along with 0.9 mM Tranylcypromine-HCl (Millipore 616431). After stopping the reactions plates were incubated for 30 minutes and read on a PHERAstar FS plate reader (BMG Labtech).

**Q.** O=C(O)CCN1CCC(CN[C@@H]2C[C@H]2c2ccccc2)(Cc2ccccc2F)CC1 [Example 16, 3-[4-(2-fluorobenzyl)-4-({[(1R,2S)-2-phenylcyclopropyl]amino}methyl)piperidin-1-yl]propanoic Acid] was tested. Which IC50 did it give?
**A.** Its IC50 is under 100 nM.

**Q.** How did the IC50 turn out when COC(=O)N1CCC(CC#N)(CN[C@@H]2C[C@H]2c2ccccc2)CC1 (relative stereo) [Example 2, Methyl 4-(cyanomethyl)-4-{[(trans-2-phenylcyclopropyl)amino]methyl}piperidine-1-carboxylate] was run?
**A.** The IC50 was under 100 nM.

**Q.** With O=C(O)CCN1CCC(CN[C@@H]2C[C@H]2c2ccccc2)(Cc2cccc(O[C@@H]3CCOC3)c2)CC1 [Example 35, 3-(4-({[(1R,2S)-2-phenylcyclopropyl]amino}methyl)-4-{3-[(3R)-tetrahydrofuran-3-yloxy]benzyl}piperidin-1-yl)propanoic Acid] as the compound, how does the IC50 read?
**A.** The IC50 was under 100 nM.

**Q.** O=C(O)CCN1CCC(CN[C@@H]2C[C@H]2c2ccccc2)(Cc2cccc(F)c2)CC1 [Example 17, 3-[4-(3-fluorobenzyl)-4-({[(1R,2S)-2-phenylcyclopropyl]amino}methyl)piperidin-1-yl]propanoic Acid] was tested. Which IC50 did it give?
**A.** The IC50 was under 100 nM.

**Q.** With CC(=O)N1CCC(CC#N)(CN[C@@H]2C[C@H]2c2ccccc2)CC1 (relative stereo) [Example 1, (1-Acetyl-4-{[(trans-2-phenylcyclopropyl)amino]methyl}piperidin-4-yl)acetonitrile] as the compound, how does the IC50 read?
**A.** Its IC50 is under 100 nM.

**Q.** How did the IC50 turn out when O=C(O)CCN1CCC(CN[C@@H]2C[C@H]2c2ccccc2)(COCC2CCC2)CC1 [Example 52, 3-[4-[(cyclobutylmethoxy)methyl]-4-({[(1R,2S)-2-phenylcyclopropyl]amino}methyl)piperidin-1-yl]propanoic Acid] was run?
**A.** Its IC50 is under 100 nM.

**Q.** For O=C(O)CCN1CCC(CN[C@@H]2C[C@H]2c2ccccc2)(COc2ccccc2F)CC1 [Example 37, 3-[4-[(2-fluorophenoxy)methyl]-4-({[(1R,2S)-2-phenylcyclopropyl]amino}methyl)piperidin-1-yl]propanoic Acid], which IC50 is on record?
**A.** Its IC50 is under 100 nM.

**Q.** N#CCc1ccc(CC2(CN[C@@H]3C[C@H]3c3ccccc3)CCN(CCC(=O)O)CC2)cc1 [Example 25, 3-[4-[4-(cyanomethyl)benzyl]-4-({[(1R,2S)-2-phenylcyclopropyl]amino}methyl)piperidin-1-yl]propanoic Acid] was tested. Which IC50 did it give?
**A.** Its IC50 is under 100 nM.

**Q.** How did the IC50 turn out when O=C(O)CCN1CCC(CN[C@@H]2C[C@H]2c2ccccc2)(Cc2ccc(F)cn2)CC1 [Example 54, 3-[4-[(5-fluoropyridin-2-yl)methyl]-4-({[(1R,2S)-2-phenylcyclopropyl]amino}methyl)piperidin-1-yl]propanoic Acid] was run?
**A.** The IC50 was under 100 nM.

**Q.** Which IC50 does the source give for N#CCCN1CCC(CN[C@@H]2C[C@H]2c2ccccc2)(Cc2cccc(C(=O)O)c2)CC1 [Example 56, 3-{[1-(2-cyanoethyl)-4-({[(1R,2S)-2-phenylcyclopropyl]amino}methyl)piperidin-4-yl]methyl}benzoic Acid] here?
**A.** Its IC50 is under 100 nM.

**Q.** N#CCC1(CN[C@@H]2C[C@H]2c2ccccc2)CCN(Cc2cccnc2)CC1 (relative stereo) [Example 7, [4-{[(trans-2-Phenylcyclopropyl)amino]methyl}-1-(pyridin-3-ylmethyl)piperidin-4-yl]acetonitrile] was tested. Which IC50 did it give?
**A.** The IC50 was under 100 nM.

**Q.** COCC1(CN[C@@H]2C[C@H]2c2ccccc2)CCNCC1 [Example 21, (1R,2S)—N-{[4-(methoxymethyl)piperidin-4-yl]methyl}-2-phenylcyclopropanamine] was tested. Which IC50 did it give?
**A.** Its IC50 is under 100 nM.

**Q.** N#Cc1cccc(OCC2(CN[C@@H]3C[C@H]3c3ccccc3)CCN(CCC(=O)O)CC2)c1 [Example 47, 3-[4-[(3-cyanophenoxy)methyl]-4-({[(1R,2S)-2-phenylcyclopropyl]amino}methyl)piperidin-1-yl]propanoic Acid] was tested. Which IC50 did it give?
**A.** The IC50 was under 100 nM.

**Q.** Which IC50 does the source give for O=C(O)c1cccc(CC2(CN[C@@H]3C[C@H]3c3ccccc3)CCN(Cc3cccnc3)CC2)c1 [Example 33, 3-{[4-({[(1R,2S)-2-phenylcyclopropyl]amino}methyl)-1-(pyridin-3-ylmethyl)piperidin-4-yl]methyl}benzoic Acid] here?
**A.** The IC50 was under 100 nM.

**Q.** With O=C(O)CCN1CCC(CN[C@@H]2C[C@H]2c2ccccc2)(COc2ncc(F)cn2)CC1 [Example 46, 3-[4-{[(5-fluoropyrimidin-2-yl)oxy]methyl}-4-({[(1R,2S)-2-phenylcyclopropyl]amino}methyl)piperidin-1-yl]propanoic Acid] as the compound, how does the IC50 read?
**A.** Its IC50 is under 100 nM.

**Q.** O=C(O)CCN1CCC(CN[C@@H]2C[C@H]2c2ccccc2)(Cc2cccc(OC3CCOCC3)c2)CC1 [Example 36, 3-{4-({[(1R,2S)-2-phenylcyclopropyl]amino}methyl)-4-[3-(tetrahydro-2H-pyran-4-yloxy)benzyl]piperidin-1-yl}propanoic Acid] was tested. Which IC50 did it give?
**A.** Its IC50 is under 100 nM.

**Q.** Which IC50 does the source give for O=C(O)CN1CCC(CN[C@@H]2C[C@H]2c2ccccc2)(Cc2ccc(F)cc2)CC1 [Example 13, [4-(4-fluorobenzyl)-4-({[(1R,2S)-2-phenylcyclopropyl]amino}methyl)piperidin-1-yl]acetic] here?
**A.** Its IC50 is under 100 nM.

**Q.** Which IC50 does the source give for O=C(O)CCN1CCC(CN[C@@H]2C[C@H]2c2ccccc2)(Cc2ccc(F)cc2)CC1 [Example 8, 3-[4-(4-fluorobenzyl)-4-({[(1R,2S)-2-phenylcyclopropyl]amino}methyl)piperidin-1-yl]propanoic Acid] here?
**A.** The IC50 was under 100 nM.

**Q.** COc1ccc(CC2(CN[C@@H]3C[C@H]3c3ccccc3)CCN(CCC(=O)O)CC2)cn1 [Example 50, 3-[4-[(6-methoxypyridin-3-yl)methyl]-4-({[(1R,2S)-2-phenylcyclopropyl]amino}methyl)piperidin-1-yl]propanoic Acid] was tested. Which IC50 did it give?
**A.** The IC50 was under 100 nM.

**Q.** How did the IC50 turn out when CCOc1cccc(CC2(CN[C@@H]3C[C@H]3c3ccccc3)CCN(CCC(=O)O)CC2)c1 [Example 60, 3-[4-(3-ethoxybenzyl)-4-({[(1R,2S)-2-phenylcyclopropyl]amino}methyl)piperidin-1-yl]propanoic Acid] was run?
**A.** Its IC50 is under 100 nM.

**Q.** With CN1CCC(CC#N)(CN[C@@H]2C[C@H]2c2ccccc2)CC1 (relative stereo) [Example 5, (1-Methyl-4-{[(trans-2-phenylcyclopropyl)amino]methyl}piperidin-4-yl)acetonitrile] as the compound, how does the IC50 read?
**A.** The IC50 was under 100 nM.

**Q.** With N#Cc1ccccc1OCC1(CN[C@@H]2C[C@H]2c2ccccc2)CCN(CCC(=O)O)CC1 [Example 43, 3-[4-[(2-cyanophenoxy)methyl]-4-({[(1R,2S)-2-phenylcyclopropyl]amino}methyl)piperidin-1-yl]propanoic Acid] as the compound, how does the IC50 read?
**A.** The IC50 was under 100 nM.

**Q.** How did the IC50 turn out when CCOCC1(CN[C@@H]2C[C@H]2c2ccccc2)CCN(CCC(=O)O)CC1 [Example 51, 3-[4-(ethoxymethyl)-4-({[(1R,2S)-2-phenylcyclopropyl]amino}methyl)piperidin-1-yl]propanoic Acid] was run?
**A.** Its IC50 is under 100 nM.

**Q.** Which IC50 does the source give for C[C@H](N)C(=O)N1CCC(CN[C@@H]2C[C@H]2c2ccccc2)(Cc2ccc(F)cc2)CC1 [Example 14, (1R,2S)—N-{[1-[(2S)-2-aminopropanoyl]-4-(4-fluorobenzyl)piperidin-4-yl]methyl}-2-phenylcyclopropanamine] here?
**A.** The IC50 was under 100 nM.

**Q.** Which IC50 does the source give for O=C(O)CCN1CCC(CN[C@@H]2C[C@H]2c2ccccc2)(Cc2ccc(F)cc2F)CC1 [Example 18, 3-[4-(2,4-difluorobenzyl)-4-({[(1R,2S)-2-phenylcyclopropyl]amino}methyl)piperidin-1-yl]propanoic Acid] here?
**A.** The IC50 was under 100 nM.

**Q.** How did the IC50 turn out when O=C(O)CCN1CCC(CN[C@@H]2C[C@H]2c2ccccc2)(Cc2ccc(F)c(F)c2)CC1 [Example 20, 3-[4-(3,4-difluorobenzyl)-4-({[(1R,2S)-2-phenylcyclopropyl]amino}methyl)piperidin-1-yl]propanoic Acid] was run?
**A.** The IC50 was under 100 nM.

**Q.** COCC1(CN[C@@H]2C[C@H]2c2ccccc2)CCN(CC(C)(C)C(=O)O)CC1 [Example 48, 3-[4-(methoxymethyl)-4-({[(1R,2S)-2-phenylcyclopropyl]amino}methyl)piperidin-1-yl]-2,2-dimethylpropanoic Acid] was tested. Which IC50 did it give?
**A.** Its IC50 is under 100 nM.

**Q.** How did the IC50 turn out when N#Cc1ccc(CC2(CN[C@@H]3C[C@H]3c3ccccc3)CCN(CCC(=O)O)CC2)c(F)c1 [Example 42, 3-[4-(4-cyano-2-fluorobenzyl)-4-({[(1R,2S)-2-phenylcyclopropyl]amino}methyl)piperidin-1-yl]propanoic Acid] was run?
**A.** Its IC50 is under 100 nM.

**Q.** N#Cc1ccc(CC2(CN[C@@H]3C[C@H]3c3ccccc3)CCN(CCC(=O)O)CC2)cc1 [Example 41, 3-[4-(4-cyanobenzyl)-4-({[(1R,2S)-2-phenylcyclopropyl]amino}methyl)piperidin-1-yl]propanoic Acid] was tested. Which IC50 did it give?
**A.** Its IC50 is under 100 nM.

**Q.** How did the IC50 turn out when COCC1(CN[C@@H]2C[C@H]2c2ccccc2)CCN(C(=O)N2CCOCC2)CC1 [Example 49, (1R,2S)—N-{[4-(methoxymethyl)-1-(morpholin-4-ylcarbonyl)piperidin-4-yl]methyl}-2-phenylcyclopropanamine] was run?
**A.** Its IC50 is under 100 nM.

**Q.** With CNC(=O)CCN1CCC(CN[C@@H]2C[C@H]2c2ccccc2)(COC)CC1 [Example 24, 3-[4-(methoxymethyl)-4-({[(1R,2S)-2-phenylcyclopropyl]amino}methyl)piperidin-1-yl]-N-methylpropanamide] as the compound, how does the IC50 read?
**A.** The IC50 was under 100 nM.

**Q.** For CC(C)N1CCC(CN[C@@H]2C[C@H]2c2ccccc2)(Cc2cccc(C(=O)O)c2)CC1 [Example 34, 3-{[1-isopropyl-4-({[(1R,2S)-2-phenylcyclopropyl]amino}methyl)piperidin-4-yl]methyl}benzoic Acid], which IC50 is on record?
**A.** Its IC50 is under 100 nM.

**Q.** For C[C@@H](N)C(=O)N1CCC(CN[C@@H]2C[C@H]2c2ccccc2)(Cc2ccc(F)cc2)CC1 [Example 15, (1R,2S)—N-{[1-[(2R)-2-aminopropanoyl]-4-(4-fluorobenzyl)piperidin-4-yl]methyl}-2-phenylcyclopropanamine], which IC50 is on record?
**A.** Its IC50 is under 100 nM.
